Marks after values point to notes of the source that are not given here.
Experiments:
[1] = test system: LLC-PK1 cells; experiment: Protective activity for renal cells against AAPH-induced oxidative damage (MTT viability); assay type: cell-based; details: 10 mM AAPH
Description: Renal cells, i.e., LLC-PK1 cell lines, are vulnerable to oxidative damage, and AAPH, which is a radical releasing agent, combines with oxygen molecules at a very rapid speed to produce a peroxyl radical and trigger lipid peroxidation, resulting in cytotoxicity (Miki et al., Arch. Biochem. Biophy., 258(2), 373-380, 1987). Thus, a protective activity for renal cells may be evaluated using such an oxidative damage of the LLC-PK1 cell lines using AAPH.
A protective effect for nephrotoxicity was evaluated using renal cells (LLC-PK1) with reference to a method reported in the publication (Yokozawa et al., Food Chem., 48, pp5068-5073, 2000) as follows.
First, the LLC-PK1 cells were cultured in an incubator with conditions of 37° C., 95% air, and 5% CO2 by using a DMEM/F12 medium (Gibco BRL Life Technologies, Grand Island, NY, USA) supplemented with 5% fetal bovine serum (Gibco BRL Life Technologies), 50 units/ml of penicillin G, and 50 μg/ml of streptomycin (Gibco BRL Life Technologies). The incubated LLC-PK1 cells were introduced into a 96-well incubation plate at a concentration of 10^4 […] and then stabilized for 2 hours. Afterwards, a radical generating reagent (i.e., 10 mM AAPH dissolved in a medium) was added to each well and cultured for 24 hours, and 50 μl of an MTT (1 mg/ml) reagent was then added to each well and incubated at 37° C. 4 hours thereafter, the medium containing MTT was removed and 100 μl of dimethyl sulfoxide was added to each well. Then, absorbance of the sample was measured using a detection wavelength of 540 nm in a SPECTRAmax 340PC (Molecular Devices, Sunnyvale, Calif., USA) microplate reader and a viability of the LLC-PK1 cells was measured using the absorbance thereof.

[2] = DPPH radical scavenging ability (antioxidative activity); assay type: biochemical; details: 60 μM DPPH, 30 minutes; FIGS. 5 to 13
Procedure: A DPPH radical scavenging ability was evaluated using a modified method from that described by Hatano et al (Hatano et al., Chem. Pharm. Bull., 37(8), pp 2016-2021, 1989). 100 μl of 60 μM DPPH was added to 100 μl of each of a plurality of sample solutions, the resultant solution was stirred and left for 30 minutes, and the absorbance of the resultant mixture was measured at 540 nm. An antioxidative activity (electron donating ability) was confirmed by measuring a decreasing ratio in absorbances of experimental groups comparing with a control of the sample solutions.

In the case of `N=C(N)NN` [aminoguanidine], the viability at 10 µg/mL ([1]; Sus scrofa, sample 10 μg/ml, 24 hours, MTT, read-out: Cell viability) is reported as 86.7 ± 14.2% and the viability at 100 µg/mL ([1]; Sus scrofa, sample 100 μg/ml, 24 hours, MTT, read-out: Cell viability) is reported as 88 ± 4.1%.
With `CC(C)=CCC[C@](C)(O[C@@H]1O[C@H](CO)[C@@H](O)[C@H](O)[C@H]1O)[C@H]1CC[C@]2(C)[C@@H]1[C@H](O)C[C@@H]1[C@@]3(C)CC[C@H](O)C(C)(C)[C@@H]3[C@@H](O[C@@H]3O[C@H](CO)[C@@H](O)[C@H](O)[C@H]3O[C@@H]3O[C@@H](C)[C@H](O)[C@@H](O)[C@H]3O)C[C@]12C` [ginsenoside Re] the “DPPH radical scavenging ability (in words)” value [2] was “low reactive oxygen scavenging ability”, the “protective activity for renal cells (in words)” value [1] was “inhibited cell damage at a high concentration” and the Cell viability ([1]; sample 10 μg/ml, 24 hours, MTT) was 89.6 ± 9.7^a %.

— US20130178436A1, “COMPOSITION FOR PREVENTING, IMPROVING, OR TREATING RENAL DISEASE INCLUDING MAILLARD BROWNING REACTION PRODUCTS OF PANAX SPECIES PLANT EXTRACT” (Korea Institute of Science and Technology, priority 2012, published 2013)
